Results reported in patent US9079838B2, “Ortho-phenylphenol compounds” (Dow Global Technologies LLC, priority 2011, dated 2015).

Key:
[1] = solubility in organic solvents at −10° C.; assay type: physicochemical; settings: for soluble at (concentration) in AROMATIC 200: AROMATIC 200, −10° C.; for soluble at (concentration) in DMAc / soluble at (concentration) in NMP / soluble at (concentration) in dipropylene glycol dimethyl ether / soluble at (concentration) in tetralin: −10° C.
[2] = Solubility of Ex. 13 Product: 10% w/w solution in AROMATIC 200 stored in −11° C. freezer; assay type: physicochemical; settings: 10% w/w in AROMATIC 200, −11° C. freezer, 2 weeks
Experimental: Solubility of Ex. 13 Product: A solution (10% w/w) in AROMATIC 200 was prepared at room temperature. The clear solution was placed in a −11° C. freezer for 2 weeks.

| soluble at (concentration) in AROMATIC 200 [1] [%] | soluble at (concentration) in DMAc [1] [%] | soluble at (concentration) in NMP [1] [%] | soluble at (concentration) in dipropylene glycol dimethyl ether [1] [%] | soluble at (concentration) in tetralin [1] [%] | melting point [°C] | SMILES | crystallization from solution on cold storage [2] |
| --- | --- | --- | --- | --- | --- | --- | --- |
| 10 | 10 | 10 | 10 | 10 |  | c1ccc(-c2ccccc2OCc2ccccc2COc2ccccc2-c2ccccc2)cc1 [1,2-bis(([1,1′-biphenyl]-2-yloxy)-methyl)benzene] |  |
|  |  | 10 |  |  | 140 to 142 | c1ccc(-c2ccccc2OCc2ccc(COc3ccccc3-c3ccccc3)cc2)cc1 [1,4-bis(([1,1′-biphenyl]-2-yloxy)-methyl)benzene] |  |
|  | 10 | 10 | 10 |  | 62 to 67 | c1ccc(-c2ccccc2OCCCCOc2ccccc2-c2ccccc2)cc1 [1,4-bis([1,1′-biphenyl]-2-yloxy)butane] |  |
| 10 |  |  | 10 | 10 | 27 to 29 | CCCCCCCCCCCCOc1ccccc1-c1ccccc1 [2-(dodecyloxy)-1,1′-biphenyl] |  |
|  |  |  |  | < 5 | 42 to 45 | CCCCCCCCCCCCCCCCCCOc1ccccc1-c1ccccc1 [2-(octadecyloxy)-1,1′-biphenyl] |  |
|  |  |  |  | 7.5 |  | CCCCCCCCCCCCCCOc1ccccc1-c1ccccc1 [2-(tetradecyloxy)-1,1′-biphenyl] |  |
|  |  | 10 |  |  | 149 to 151 | c1ccc(-c2ccccc2OCc2ccc(-c3ccc(COc4ccccc4-c4ccccc4)cc3)cc2)cc1 [4,4′-bis(([1,1′-biphenyl]-2-yloxy)methyl)-1,1′-biphenyl] |  |
|  |  |  |  |  |  | O=C(Oc1ccccc1-c1ccccc1)c1ccccc1 [Ex. 13 Product, [1,1′-biphenyl]-2-yl benzoate] | No visibly detectable crystallization occurred |
